Assay results from patent US8133884B2, “Compounds for the treatment of hepatitis C” (priority 2008, dated 2012).

Key:
HCV replicon = HCV replicon assay (FRET or luciferase reporter); format: cell-based; settings: one of the methods described
Description: To perform the HCV FRET screening assay, 96-well cell culture plates were used, The FRET peptide (Anaspec, Inc.) (Taliani et al., Anal. Biochem., 240:60-67 (1996)) contains a fluorescence donor, EDANS, near one end of the peptide and an acceptor, DABCYL, near the other end. The fluorescence of the peptide is quenched by […] resonance energy transfer (RET) between the donor and the acceptor, but as the NS3 protease cleaves the peptide the products are released from RET quenching and the fluorescence of the donor becomes apparent. The assay reagent was made as follows: 5× cell Luciferase cell culture lysis reagent from Promega (#E153A) diluted to 1× with dH2O, NaCl added to 150 mM final, the FRET peptide diluted to 20 μM final from a 2 mM stock.
To prepare plates, HCV replicon cells, with or without a Renilla luciferase reporter gene, were trypsinized and placed into each well of a 96-well plate with titrated test compounds added in columns 3 through 12; columns 1 and 2 contained a control compound (HCV protease inhibitor), and the bottom row contained cells without compound. The plates were then placed in a CO2 incubator at 37° C.
Subsequent to addition of the test compounds described above (FRET Assay Preparation), at various times the plate was removed and Alamar blue solution (Trek Diagnostics, #00-100) was added per well as a measure of cellular toxicity. After reading in a CYTOFLUOR® 4000 instrument (PE Biosystems), plates were rinsed with PBS and then used for FRET assay by the addition of 30 ul of the FRET peptide assay reagent described above (FRET Assay Preparation) per well. The plate was then placed into the CYTOFLUOR® 4000 instrument which had been set to 340 excite/490 emission, automatic mode for 20 cycles and the plate read in a kinetic mode. Typically, the signal to noise using an endpoint analysis after the reads was at least three-fold. Alternatively, after Alamar blue reading, plates were rinsed with PBS, 50 ul of DMEM (high glucose) without phenol red was added and plates were then used for luciferase assay using the Promega DUAL-GLO® Luciferase Assay System.
Compound analysis was determined by quantification of the relative HCV replicon inhibition and the relative cytotoxicity values. To calculate cytoxicity values, the average Alamar Blue fluorescence signals from the control wells were set as 100% non-toxic. The individual signals in each of the compound test wells were then divided by the average control signal and multiplied by 100% to determine […]. To calculate the HCV replicon inhibition values, an average background value was obtained from the two wells containing the highest amount of HCV protease inhibitor at the end of the assay period. These numbers were similar to those obtained from naïve Huh-7 cells.
The background numbers were then subtracted from the average signal obtained from the control wells and this number was used as 100% activity. The individual signals in each of the compound test wells were then divided by the averaged control values after background subtraction and multiplied by 100% to determine percent activity. EC50 values for a protease inhibitor titration were calculated as the concentration which caused a 50% reduction in FRET or luciferase activity. The two numbers generated for the compound plate, percent cytoxicity and percent activity were used to determine compounds of interest for further analysis.
The HCV replicon luciferase assay was developed to monitor the inhibitory effects of compounds described in the disclosure on HCV viral replication. Utilization of a replicon luciferase reporter assay was first described by Krieger et al (Krieger, N. et al., J. Virology, 75(10):4614-4624 (2001)). HUH-7 cells, constitutively expressing the HCV replicon, were grown in Dulbecco's Modified Eagle Media (DMEM) (Gibco-BRL) containing 10% Fetal calf serum (FCS) (Sigma) and 1 mg/ml G418 (Gibco-BRL). […]

HCV NS5B = biological target: T1, HCV NS5B (Hepatitis C virus genotype 1b, UniProt Q9WMX2); test: Modified HCV NS5B RdRp enzyme assay (preincubation protocol); format: biochemical
T1 construct: The protein was expressed with an 18 amino acid C-terminal truncation to enhance the solubility; made in house; host or cells: E. coli BL21(DE3)
Method: The cDNA encoding the NS5B protein of HCV, genotype 1b, was cloned into the pET21a expression vector. The protein was expressed with an 18 amino acid C-terminal truncation to enhance the solubility. The E. coli competent cell line BL21(DE3) was used for expression of the protein. Cultures were grown at 37° C. for ˜4 hours until the cultures reached an optical density of 2.0 at 600 nm. The cultures were cooled to 20° C. and induced with 1 mM IPTG. Fresh ampicillin was added to a final concentration of 50 μg/ml and the cells were grown overnight at 20° C.
Cell pellets (3 L) were lysed for purification to yield 15-24 mgs of purified NS5B. The lysis buffer consisted of 20 mM Tris-HCl, pH 7.4, 500 mM NaCl, 0.5% triton X-100, 1 mM DTT, 1 mM EDTA, 20% glycerol, 0.5 mg/ml lysozyme, 10 mM MgCl2, 15 ug/ml deoxyribonuclease I, and Complete TM protease inhibitor tablets (Roche). After addition of the lysis buffer, frozen cell pellets were resuspended using a tissue homogenizer. To reduce the viscosity of the sample, aliquots of the lysate were sonicated on ice using a microtip attached to a Branson sonicator. The sonicated lysate was centrifuged at 100,000×g for 1 hr at 4° C. and filtered through a 0.2 μm filter unit (Corning).
The protein was purified using three sequential chromatography steps: Heparin sepharose CL-6B, polyU sepharose 4B, and […] SP sepharose (Pharmacia). The chromatography buffers were identical to the lysis buffer but contained no lysozyme, deoxyribonuclease I, MgCl2 or protease inhibitor and the NaCl concentration of the buffer was adjusted according to the requirements for charging the protein onto the column. Each column was eluted with a NaCl gradient which varied in length from 5-50 column volumes depending on the column type. After the final chromatography step, the resulting purity of the enzyme is >90% based on SDS-PAGE analysis. The enzyme was aliquoted and stored at −80° C.
HCV RdRp genotype 1b assays were run in a final volume of 60 μl in 96 well plates (Costar 3912). The assay buffer is composed of 20 mM Hepes, pH 7.5, 2.5 mM KCl, 2.5 mM MgCl2, 1 mM DTT, 1.6 U RNAse inhibitor (Promega N2515), 0.1 mg/ml BSA (Promega R3961), and 2% glycerol. All compounds were serially diluted (3-fold) in DMSO and diluted further in water such that the final concentration of DMSO in the assay was 2%. HCV RdRp genotype 1b enzyme was used at a final concentration of 28 nM. A polyA template was used at 6 nM, and a biotinylated oligo-dT12 primer was used at 180 nM final concentration. Template was obtained commercially (Amersham 27-4110). Biotinylated primer was prepared by Sigma Genosys. 3H-UTP was used at 0.6 μCi (0.29 μM total UTP). Reactions were initiated by the addition of enzyme, incubated at 30° C. for 60 min, and stopped by adding 25 μl of 50 mM EDTA containing SPA beads (4 μg/μl, Amersham RPNQ 0007). Plates were read on a Packard TOPCOUNT® NXT after >1 hr incubation at room temperature.
A modified enzyme assay was performed essentially as described for the standard enzyme assay except for the following: The biotinylated oligo dT12 primer was precaptured on streptavidin-coated SPA beads by mixing primer and beads in assay buffer and incubating at room temperature for one hour. Unbound primer was removed after centrifugation. The primer-bound beads were resuspended in 20 mM Hepes buffer, pH 7.5 and used in the assay at final concentrations of 20 nM primer and 0.67 μg/μl beads. Order of addition in the assay: enzyme (14 nM) was added to diluted compound followed by the addition of a mixture of template (0.2 nM), 3H-UTP (0.6 μCi, 0.29 μM), and primer-bound beads, to initiate the reaction; concentrations given are final. Reactions were allowed to proceed for 4 hours at 30° C.
IC50 values for compounds were determined using seven different [I]. IC50 values were calculated from the inhibition using the formula y=A+((B−A)/(1+((C/x)^D))).

[1] = Hepatitis C virus, class symbol

T1 sequence (Q9WMX2 2420-2992): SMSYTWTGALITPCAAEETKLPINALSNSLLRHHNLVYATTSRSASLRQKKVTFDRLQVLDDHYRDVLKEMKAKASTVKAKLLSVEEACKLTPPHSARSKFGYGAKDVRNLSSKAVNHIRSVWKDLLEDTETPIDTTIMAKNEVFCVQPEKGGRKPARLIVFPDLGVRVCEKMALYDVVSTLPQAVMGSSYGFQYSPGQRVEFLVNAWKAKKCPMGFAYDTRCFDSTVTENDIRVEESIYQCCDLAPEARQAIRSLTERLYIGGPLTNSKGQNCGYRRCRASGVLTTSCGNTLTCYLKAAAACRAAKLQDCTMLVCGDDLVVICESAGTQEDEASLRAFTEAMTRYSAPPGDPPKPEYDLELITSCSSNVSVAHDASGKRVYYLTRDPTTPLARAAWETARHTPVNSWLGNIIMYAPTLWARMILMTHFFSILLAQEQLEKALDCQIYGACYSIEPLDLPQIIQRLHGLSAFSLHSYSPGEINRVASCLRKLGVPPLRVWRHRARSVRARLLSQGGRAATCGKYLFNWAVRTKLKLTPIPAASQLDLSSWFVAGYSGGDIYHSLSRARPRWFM

Row | IC50 (HCV NS5B; class symbol) [nM] | SMILES | EC50 (HCV replicon; [1]) [nM] | other results
1 |  | COc1ccc2c(c1)C=C(c1ncn(C3CC3)c1C(=O)N1C[C@@H](C)O[C@@H](C)C1)Cn1c-2c(C2CCCCC2)c2ccc(C(=O)NS(=O)(=O)C(C)C)cc21 | 1.7 to 500 | 
2 | 1.7 to 500 | CCOC(=O)c1cnn(C2CCOCC2)c1C1=Cc2cc(OC)ccc2-c2c(C3CCCCC3)c3ccc(C(=O)NS(=O)(=O)CC(C)C)cc3n2C1 |  | 
3 | 1.7 to 500 | COc1ccc2c(c1)C=C(c1c(C(=O)O)cnn1C1CCOCC1)Cn1c-2c(C2CCCCC2)c2ccc(C(=O)NS(=O)(=O)CC(C)C)cc21 |  | 
4 | 1.7 to 500 | CCOC(=O)c1cnn(C2CCC2)c1C1=Cc2cc(OC)ccc2-c2c(C3CCCCC3)c3ccc(C(=O)NS(=O)(=O)CC(C)C)cc3n2C1 |  | 
5 | 1.7 to 500 | COc1ccc2c(c1)C=C(c1c(C(=O)O)cnn1C1CCC1)Cn1c-2c(C2CCCCC2)c2ccc(C(=O)NS(=O)(=O)CC(C)C)cc21 |  | 
6 | 1.7 to 500 | CCOC(=O)c1cnn(C2CCOCC2)c1C1=Cc2cc(OC)ccc2-c2c(C3CCCCC3)c3ccc(C(=O)O)cc3n2C1 |  | 
7 | > 500 | CCOC(=O)c1cnn(C2CCC2)c1C1=Cc2cc(OC)ccc2-c2c(C3CCCCC3)c3ccc(C(=O)OC(C)(C)C)cc3n2C1 |  | 
8 | 1.7 to 500 | CCOC(=O)c1cnn(C2CCC2)c1C1=Cc2cc(OC)ccc2-c2c(C3CCCCC3)c3ccc(C(=O)NS(=O)(=O)C(C)C)cc3n2C1 |  | 
9 | 1.7 to 500 | COc1ccc2c(c1)C=C(c1c(C(=O)O)cnn1C1CCOCC1)Cn1c-2c(C2CCCCC2)c2ccc(C(=O)NS(=O)(=O)C(C)C)cc21 |  | 
10 | 1.7 to 500 | CCN1CC2CC1CN2C(=O)c1c(C2=Cc3cc(OC)ccc3-c3c(C4CCCCC4)c4ccc(C(=O)NS(=O)(=O)C(C)C)cc4n3C2)ncn1C1CC1 (centres unmarked) |  | 
11 | 1.7 to 500 | CCOC(=O)c1cnn(C2CCOCC2)c1C1=Cc2cc(OC)ccc2-c2c(C3CCCCC3)c3ccc(C(=O)NS(=O)(=O)C(C)C)cc3n2C1 |  | 
12 |  | COc1ccc2c(c1)C=C(c1c(C(=O)N3CC4CCC3CN4)cnn1C1CCC1)Cn1c-2c(C2CCCCC2)c2ccc(C(=O)NS(=O)(=O)C(C)C)cc21 (centres unmarked) | 1.7 to 500 | 
13 | 1.7 to 500 | COc1ccc2c(c1)C=C(c1c(C(=O)N3CCCN(C)CC3)cnn1C1CCC1)Cn1c-2c(C2CCCCC2)c2ccc(C(=O)NS(=O)(=O)C(C)C)cc21 |  | 
14 | 1.7 to 500 | COc1ccc2c(c1)C=C(c1c(C(=O)O)cnn1C1CCC1)Cn1c-2c(C2CCCCC2)c2ccc(C(=O)NS(=O)(=O)C(C)C)cc21 |  | 
15 |  | COc1ccc2c(c1)C=C(c1c(C(=O)N3CCOCC4(CNC4)C3)cnn1C1CCC1)Cn1c-2c(C2CCCCC2)c2ccc(C(=O)NS(=O)(=O)C(C)C)cc21 | 1.7 to 500 | EC50 (HCV replicon; Hepatitis C virus, exact value): 350 nM
16 |  | COc1ccc2c(c1)C=C(c1c(C(=O)O)noc1C1CC1)Cn1c-2c(C2CCCCC2)c2ccc(C(=O)NS(=O)(=O)N(C)C)cc21 | 1.7 to 500 | 

Row | SMILES | IC50 (HCV NS5B; class symbol) [nM] | EC50 (HCV replicon; [1]) [nM] | other results
17 | COc1ccc2c(c1)C=C(c1c(C(=O)N3CCCOCC3)cnn1C1CCC1)Cn1c-2c(C2CCCCC2)c2ccc(C(=O)NS(=O)(=O)C(C)C)cc21 | 1.7 to 500 | 1.7 to 500 | EC50 (HCV replicon; Hepatitis C virus, exact value): 7.6 nM; IC50 (HCV NS5B; exact value): 5.4 nM
18 | COCCN(C(=O)c1cnn(C2CCC2)c1C1=Cc2cc(OC)ccc2-c2c(C3CCCCC3)c3ccc(C(=O)NS(=O)(=O)C(C)C)cc3n2C1)C(C)C | 1.7 to 500 | 1.7 to 500 | 
19 | CCOC(=O)c1cnn(-c2ccncc2C)c1C1=Cc2cc(OC)ccc2-c2c(C3CCCCC3)c3ccc(C(=O)O)cc3n2C1 | 1.7 to 500 | 1.7 to 500 | 
20 | COc1ccc2c(c1)C=C(c1c(C(=O)N3C[C@@H](C)O[C@@H](C)C3)cnn1-c1cccnc1)Cn1c-2c(C2CCCCC2)c2ccc(C(=O)NS(=O)(=O)C(C)C)cc21 | 1.7 to 500 | 1.7 to 500 | 
21 | COc1ccc2c(c1)C=C(c1c(C(=O)N3C[C@@H](C)O[C@@H](C)C3)cnn1C1CCCC1)Cn1c-2c(C2CCCCC2)c2ccc(C(=O)NS(=O)(=O)C(C)C)cc21 | 1.7 to 500 | 1.7 to 500 | 
22 | COc1ccc2c(c1)C=C(c1c(C(=O)N3C[C@@H](C)O[C@@H](C)C3)cnn1C1CCC1)Cn1c-2c(C2CCCCC2)c2ccc(C(=O)NS(=O)(=O)N(C)C)cc21 [drawing 260] | 1.7 to 500 |  | EC50 (HCV replicon; class symbol): 1.7 to 500 nM
23 | CCN1C[C@@H]2C[C@H]1CN2C(=O)c1cnn(C2CCOCC2)c1C1=Cc2cc(OC)ccc2-c2c(C3CCCCC3)c3ccc(C(=O)NS(=O)(=O)CC(C)C)cc3n2C1 | 1.7 to 500 | 1.7 to 500 | 
24 | COc1ccc2c(c1)C=C(c1c(C(=O)N3C[C@]4(C)CN(C)C[C@](C)(C3)C4)cnn1C1CCC1)Cn1c-2c(C2CCCCC2)c2ccc(C(=O)NS(=O)(=O)C(C)C)cc21 | 1.7 to 500 | 1.7 to 500 | 
25 | COc1ccc2c(c1)C=C(c1c(C(=O)N3CC(F)(F)C3)cnn1C1CCC1)Cn1c-2c(C2CCCCC2)c2ccc(C(=O)NS(=O)(=O)C(C)C)cc21 | 1.7 to 500 | 1.7 to 500 | 
26 | COc1ccc2c(c1)C=C(c1c(C(=O)N3C[C@@H](C)O[C@@H](C)C3)cnn1-c1cc[nH]c(=O)c1)Cn1c-2c(C2CCCCC2)c2ccc(C(=O)NS(=O)(=O)C(C)C)cc21 | 1.7 to 500 | > 1000 | EC50 (HCV replicon; Hepatitis C virus, exact value): > 1000 nM; IC50 (HCV NS5B; exact value): 8.9 nM
